Experimental data as given in US11339156B2, “3-(1H-pyrazol-4-yl)pyridine allosteric modulators of the M4 muscarinic acetylcholine receptor” (Merck Sharp & Dohme Corp., priority 2017, dated 2022).
pEC50: −log10 of the molar value.

These compounds were tested against T1, human M4 muscarinic acetylcholine receptor (Homo sapiens, UniProt P08173) (assay: human FLIPR-based M4 PAM assay (CHO-K1 cells with human M4 receptor and Gαqi5, calcium dye fluorescence)). Settings: inflection point of 4 parameter logistic fit; acetylcholine added at 20% of maximum response; read-out: M4PAM IP.
T1 construct: expressed in transfected cells
T1 sequence (P08173 1-479): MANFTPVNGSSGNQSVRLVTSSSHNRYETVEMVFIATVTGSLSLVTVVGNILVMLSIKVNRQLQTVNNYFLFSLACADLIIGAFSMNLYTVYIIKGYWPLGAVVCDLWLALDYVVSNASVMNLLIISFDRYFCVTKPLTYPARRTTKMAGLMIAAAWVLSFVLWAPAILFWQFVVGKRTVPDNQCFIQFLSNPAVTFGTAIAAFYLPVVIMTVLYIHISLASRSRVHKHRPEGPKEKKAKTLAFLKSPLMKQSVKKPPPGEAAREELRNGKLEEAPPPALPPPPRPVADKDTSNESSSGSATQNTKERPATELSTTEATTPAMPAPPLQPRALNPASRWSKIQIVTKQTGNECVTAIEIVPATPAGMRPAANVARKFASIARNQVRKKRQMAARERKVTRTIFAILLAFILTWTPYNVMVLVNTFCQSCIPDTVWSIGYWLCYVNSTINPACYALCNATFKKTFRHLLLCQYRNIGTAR
Type: cell-based
Outline: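 The FLIPR read recorded 4 min after compound was added across a concentration range, then 3.5 min after acetylcholine giving 20% of its maximal response, with an occasional extra EC70 addition. Cells were dye-loaded for about 1 h at 37 °C. Potency is the curve inflection point from a four-parameter logistic fit.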

Point of comparison: CC(C)(Cn1cc(-c2ccc(C#N)nc2-c2ccn3ccnc3c2)cn1)C(F)(F)F [Example 44, 6-(imidazo[1,2-a]pyridin-7-yl)-5-(1-(3,3,3-trifluoro-2,2-dimethylpropyl)-1H-pyrazol-4-yl)picolinonitrile], pEC50 7.55. Against it:
- CC(C)(C)Cn1cc(-c2cc(F)cnc2-c2ccn3ccnc3c2)cn1 [Example 80, 7-{3-[1-(2,2-dimethylpropyl)-1H-pyrazol-4-yl]-5-fluoropyridin-2-yl}imidazo[1,2-a]pyridine] — 0.54 log units lower, 7.01
- Cc1nnc2cc(-c3nc(C#N)ccc3-c3cnn(CC(C)(C)C)c3)ccn12 [Example 70, 5-[1-(2,2-dimethylpropyl)-1H-pyrazol-4-yl]-6-(3-methyl[1,2,4]triazolo[4,3-a]pyridin-7-yl)pyridine-2-carbonitrile] — 0.56 log units lower, 6.99
- Cc1cc(-c2cnn(CC3(C(F)(F)F)CC3)c2)c(-c2ccn3ccnc3c2)nc1C#N [Example 138, 6-imidazo[1,2-a]pyridin-7-yl-3-methyl-5-(1-{[1-(trifluoromethyl)cyclopropyl]methyl}-1H-pyrazol-4-yl)pyridine-2-carbonitrile] — 0.33 log units lower, 7.22
- CC(C)(C)Cn1cc(-c2ccc(C(F)(F)F)nc2-c2ccn3ccnc3c2)cn1 [Example 83, 7-{3-[1-(2,2-dimethylpropyl)-1H-pyrazol-4-yl]-6-(trifluoromethyl)pyridin-2-yl}imidazo[1,2-a]pyridine] — 0.21 log units lower, 7.34
- Cn1cnc2cc(-c3nc(C#N)ccc3-c3cnn(CC4(C)CCOCC4)c3)ccc21 [Example 38, 6-(1-methyl-1H-benzimidazol-5-yl)-5-{1-[(4-methyltetrahydro-2H-pyran-4-yl)methyl]-1H-pyrazol-4-yl}pyridine-2-carbonitrile] — 0.77 log units lower, 6.78
- CC(C)CCn1cc(-c2cccnc2-c2ccc3c(c2)C(=O)NC3)cn1 [Example 74, 6-{3-[1-(3-methylbutyl)-1H-pyrazol-4-yl]pyridin-2-yl}-2,3-dihydro-1H-isoindol-1-one] — 1.08 log units lower, 6.47
- CC(C)(C)Cn1cc(-c2ccc(C#N)nc2-c2ccn3c(Cl)cnc3c2)cn1 [Example 117, 6-(3-chloroimidazo[1,2-a]pyridin-7-yl)-5-(1-neopentyl-1H-pyrazol-4-yl)picolinonitrile] — within 0.2 log units, 7.48
- Cc1cn2ccc(-c3ncc(F)cc3-c3cnn(CC(C)(C)C(F)F)c3)cc2n1 [Example 106, 7-{3-[1-(3,3-difluoro-2,2-dimethylpropyl)-1H-pyrazol-4-yl]-5-fluoropyridin-2-yl}-2-methylimidazo[1,2-a]pyridine] — 0.39 log units lower, 7.16
- N#Cc1ccc(-c2cnn(CC(F)(F)C3CC3)c2)c(-c2ccn3ccnc3c2)n1 [Example 1, 5-(1-(2-cyclopropyl-2,2-difluoroethyl)-1H-pyrazol-4-yl)-6-(imidazo[1,2-a]pyridin-7-yl)picolinonitrile] — 0.32 log units lower, 7.23
- Cc1ccc(-c2cnn(CC3(C)CCCCC3)c2)c(-c2ccc3c(C)n[nH]c3c2)n1 [Example 4, 3-methyl-6-(6-methyl-3-{1-[(1-methylcyclohexyl)methyl]-1H-pyrazol-4-yl}pyridin-2-yl)-1H-indazole] — 0.39 log units lower, 7.16
- CC(C)(C)Cn1cc(-c2ccc(C#N)nc2-c2ccn3cc(C(F)F)nc3c2)cn1 [Example 64, 6-[2-(difluoromethyl)imidazo [1,2-a]pyridin-7-yl]-5-[1-(2,2-dimethylpropyl)-1H-pyrazol-4-yl]pyridine-2-carbonitrile] — 0.28 log units higher, 7.83
- Cc1cn2ccc(-c3nc(C#N)ccc3-c3cnn(CCC(O)C(F)(F)F)c3)cc2n1 (stereo not drawn) [Example 43, 6-(2-methylimidazo[1,2-a]pyridin-7-yl)-5-[1-(4,4,4-trifluoro-3-hydroxybutyl)-1H-pyrazol-4-yl]pyridine-2-carbonitrile] — 0.50 log units lower, 7.05
- CC(C)C1(Cn2cc(-c3ccc(C#N)nc3-c3ccn4ccnc4c3)cn2)CC1 [Example 36, 6-imidazo[1,2-a]pyridin-7-yl-5-(1-{[1-(1-methylethyl)cyclo-propyl]methyl}-1H-pyrazol-4-yl)pyridine-2-carbonitrile] — within 0.2 log units, 7.43

Same assay, conditions: read-out: HuM4PAM

CC(C)(F)Cn1cc(-c2ccc(C#N)nc2-c2ccn3ccnc3c2)cn1 [Example 121, 5-(1-(2-fluoro-2-methylpropyl)-1H-pyrazol-4-yl)-6-(imidazo[1,2-a]pyridin-7-yl)picolinonitrile] gave a pEC50 of 6.97.
